US6551793B1, “Carotenoid-associated proteins useful for high carotenoid accumulation and production in plants and other organisms” (Yissum Research Development Company of the Hebrew …, priority 1996, dated 2003)

What was measured:
Assay type in all cases: cell-based, Cucumis sativus
CHRC mRNA [1] = experiment: In vitro flower bud culture, Northern blot of CHRC mRNA in corollas; settings: 10 μM ABA
Psy mRNA = experiment: In vitro flower bud culture, Northern blot of Psy mRNA in corollas; settings: 100 μM ABA or 100 μg/ml paclobutrazol, 2 hours of treatment
Protocol: (§1) Young flower buds were cultured in vitro in the presence (GA) or the absence (C) of 100 μM GA3 for up to 48 hours. Northern and Western blot analyses of corollas, cultured for the indicated periods of time, were performed. The Northern blots (25 μg total RNA/lane) were hybridized with ^32P-labeled DNA inserts from CHRC (CHRC), […] (Psy), and 18s rDNA (18S). Western blot analysis (bottom panel of A) was performed using antibodies against CHRC protein (25 μg total protein/lane). The results of the CHRC Northern blot analyses are also shown graphically relative to the mRNA level of the untreated corollas at zero time (0) (arbitrary value of 1).
(§2) Flower buds were cultured in the presence of 100 μm GA3 (GA), 100 μg/ml paclobutrazol following 2 hours of pretreatment with 100 μg/ml paclobutrazol (P), 100 μg/ml paclobutrazol +100 μm GA3 following 2 hours of pretreatment with 100 μg/ml paclobutrazol (P/GA), 100 μM ABA (ABA), or no phytohormones (C). Total RNA was extracted from corollas after 2 hours of treatment. Northern blot analyses were performed and probed as described in the legend to FIG. 7.
(§3) Total RNA and protein were extracted from cucumber corollas of flower buds cultured for 6 hours in the presence of 100 μM GA3 (GA), 50 μM CHX following 2 hours of pretreatment with 50 μM CHX (CHX/GA), or no phytohormones (C). Northern (CHRC, Psy, and 18S) and Western (bottom panel) blot analyses were performed as described above.
This example describes plant material and conditions for in vitro flower bud culture. C. sativus L. plants (cultivar Shimahon, obtained from Zeraim Gadera, Israel) were grown under standard greenhouse conditions. In vitro culture of flower buds was performed at 23° C., under constant light from cool white fluorescent lamps with a photosynthetic photon flux density of 80 μmol/m^2 g, as described previously. Briefly, buds at developmental stage 1 (˜8 mm in length, 120 hours before anthesis) were collected and rinsed several times with sterile water. Buds were then placed for 24 hours on a perforated Parafilm (American National Can, Greenwich, Conn.) covering a Petri dish filled with double-distilled sterile water, such that only the bases of the buds were in contact with the liquid. […]
This example describes conditions used for RNA isolation and Northern blot analysis. […] Autoradiograms were quantified by scanning suitably exposed films in a densitometer (Molecular Dynamics, Sunnyvale, Calif.). The amount of RNA loaded onto the gels was standardized by optical measurement, by quantitation of the ethidium bromide fluorescence of cytoplasmic rRNA. and by the level of hybridization with a DNA fragment coding for cytoplasmic 18S RNA.

CHRC mRNA [2] = experiment: In vitro flower bud culture, Northern blot of CHRC mRNA in corollas; settings: 100 μM ABA, 2 hours
Protocol: as §1, §2, §3
In FIG. 10, flower buds were cultured for 2 hours without (0) or with various concentrations of GA3. Total RNA was isolated from corollas, and a Northern blot was probed as above. The results of the CHRC Northern blot analyses are also shown graphically relative to the mRNA level of control corollas cultured without GA3 (arbitrary value of 1).
(§4) This example describes plant material and conditions for in vitro flower bud culture. C. sativus L. plants (cultivar Shimahon, obtained from Zeraim Gadera, Israel) were grown under standard greenhouse conditions. In vitro culture of flower buds was performed at 23° C., under constant light from cool white fluorescent lamps with a photosynthetic photon flux density of 80 μmol/m^2 g, as described previously. Briefly, buds at developmental stage 1 (˜8 mm in length, 120 hours before anthesis) were collected and rinsed several times with sterile water. Buds were then placed for 24 hours on a perforated Parafilm (American National Can, Greenwich, Conn.) covering a Petri dish filled with double-distilled sterile water, such that only the bases of the buds were in contact with the liquid. Following equilibration, buds were transferred to a fresh Petri dish (zero time for the experiments) and treated with GA3, ABA, paclobutrazol, or CHX, as specified in the figure legends.
This example describes conditions used for RNA isolation and Northern blot analysis. Total RNA from corollas of cucumber flower buds was isolated as described previously. RNA (15 and 25 μg) was fractionated through a 1.2% formaldehyde gel and transferred to a Hybond-N^− filter (Amersham Corp.). A random priming kit (Boehringer Mannheim) was used to radioactively labeled DNA probes. The blots were hybridized with ^32P-labeled cucumber CHRC cDNA (Vishnevetsky, et al., Plant Journal, 10: 1111-1118 (1996)) and reprobed with melon phytoene synthase (PSY) cDNA (MEL5), provided by D. Grierson of the Nottingham University, UK. The hybridization for analysis of CHRC expression was carried out in 0.263 M Na2HPO4, 7% SDS, […], 1% BSA for 16 hours at 60° C., and the washes were performed in 2×SSC/0.1% SDS at 50° C. followed by 2×SSC/0.1% SDS at 55° C., for 20 minutes each. Hybridization with the MEL5 probe was carried out at 55° C. using the same procedure. Following the hybridization, the blots were washed in 5×SSC/0.1% SDS at 45° C. for 20 minutes followed by 5×SSC/0.1% SDS at 50° C. and 2×SSC/0.1% SDS at 50° C. for 20 minutes each. […]

CHRD = experiment: In vitro flower bud culture, Western blot of CHRD in corollas; settings: flower buds cultured for 72 hours
Protocol: CHRD levels in corollas were analyzed by western blotting (10 μg of total protein per lane) using antibodies against CHRD and horseradish peroxidase anti-rabbit IgG in an enhanced chemiluminescence detection system. FIG. 14B is a Western blot analysis of corollas (50 μg of total protein per lane) cultured for the indicated periods with (+) or without (−) GA3. The blot was decorated with antibodies against CHRD and alkaline phosphatase anti-rabbit 1 gG.
In FIG. 15A, antibodies against CHRD or CHRC were used in a western blot analysis of CHRD and CHRC levels, respectively, in corollas cultured for 72 hours in the presence (E) or absence (C) of ethylene (50 μg of total protein per lane). In FIG. 15B, flowers were enclosed in aluminum foil in the greenhouse for 3 days and CHRD levels in etiolated (D) and control, nonetiolated (L) corollas were analyzed by western blotting (50 μg of total protein per lane).
as §4
CHRD protein was isolated from Cucumis sativus as a minor component, immunologically characterised and analyzed in terms of the regulation of its expression by developmental signals using methods and conditions described above for CHRC. […] Carotenoids are known to accumulate in dark.

For `CC1=CC(=O)CC(C)(C)[C@@]1(O)/C=C/C(C)=C\C(=O)O` [ABA, abscisic acid], the “Down-regulation of CHRC expression” value (CHRC mRNA [1]) was “only slightly down-regulated”, the “Effect on Psy mRNA levels” value (Psy mRNA) was “Neither ABA nor paclobutrazol markedly affected” and the “Down-regulation of CHRC mRNA level compared with control corollas” value (CHRC mRNA [2]) was 2.5 times. For the same compound, the “CHRD level per unit protein, down-regulation compared with control untreated corollas” value (CHRD) was 2.5±0.3 times.
